Assay results published in US5698552A, “Hetrazepinoid amides” (Boehringer Ingelheim KG, priority 1990, dated 1997).

How the values were obtained:
[1] = system: PAF-induced platelet aggregation; test: Inhibition of PAF-induced platelet aggregation in vitro (Born and Cross method); assay type: cell-based, healthy male and female donors (human); details: PAF 5 ×10^-8 M; human platelet-rich plasma (TRP); n=4; read-out: PAF-induced platelet aggregation (inhibition, IC50 = concentration at 50% aggregation inhibition)
Procedure: 200 ml samples of blood were taken from a non-obstructed vein, with the aid of a plastic syringe containing 3.8% sodium citrate solution, from healthy male and female donors aged from 18 to 35 years who had not taken any medicaments (aspirin or other non-steroid anti-inflammatories) for several days before the blood withdrawal. The ratio of sodium citrate solution:blood was 1:9. The citrated blood was centrifuged in plastic tubes at 150 ×g (=1,200 rpm) at room temperature for 20 min (Heraeus Christ bench centrifuge 124).
The platelet aggregation was measured in vitro by the method of Born and Cross (1963), an aggregation inducer (PAF) being added to the TRP, while stirring constantly. For the measurement, 0.8 ml TRP and 0.2 ml modified Tyrode's solution (see below) were introduced into 1 ml plastic cells, each of which contained a small metal pin (stirrer, 1,000 rpm). The test substance was added in a volume of 10 μl for 2 to 3 min before inducing the aggregation. Either DMSO and water or a dilute HCl solution was used as the solvent. The control batches contained the corresponding volume of these solvents. After recording the initial absorption (2-3 min), aggregation was induced. PAF (5 ×10^-8 M; Bachem Feinchemikalien) was introduced into the cell in a volume of 10 μl.
The modified Tyrode's solution had the following composition: 136.9 mM NaCl; 2.68 mM KCl; 0.5 mM MgCl2; 1.8 mM CaCl2; 0.42 mM NaH2 PO4; 5.55 mM glucose and 11.9 mM NaHCO3.
To evaluate substance effects, the maximum of the first aggregation wave was used. The maximum absorption induced by the aggregation inducer (=maximum aggregation=100%) was simultaneously run in a parallel batch (in the 2nd channel of the aggregometer) to each test batch and used as the 100% value. The aggregation value achieved under the action of the test substance was quoted as % of the control value (batch).
Concentration/effect curves with a random sample size of in each case n=4 were plotted with the aid of this method and IC50 values (concentration at 50% aggregation inhibition) were calculated.

[2] = molecular target: T1, PAF receptor (Homo sapiens, UniProt P25105); test: 3H-PAF-receptor bonding on human thrombocytes (platelets); assay type: binding; details: method as in European Patent Application 368 175
T1 construct: determined using human thrombocytes; endogenous in cells; host or cells: human thrombocytes (platelets)
T1 sequence (P25105 whole entry): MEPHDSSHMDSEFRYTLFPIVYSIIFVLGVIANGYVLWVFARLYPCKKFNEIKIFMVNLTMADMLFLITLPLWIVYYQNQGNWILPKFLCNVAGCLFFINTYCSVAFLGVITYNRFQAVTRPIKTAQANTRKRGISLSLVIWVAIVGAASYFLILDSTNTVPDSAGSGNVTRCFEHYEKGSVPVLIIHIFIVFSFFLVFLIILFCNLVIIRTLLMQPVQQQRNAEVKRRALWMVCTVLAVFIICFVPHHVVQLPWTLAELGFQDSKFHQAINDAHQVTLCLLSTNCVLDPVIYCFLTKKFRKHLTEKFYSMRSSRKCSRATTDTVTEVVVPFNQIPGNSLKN
Procedure: Then, at 20° C., 18.3 g (0.12 mol) of hydroxybenzotriazole (HOBT), 23.7 g (0.109 mol) of N-4-trifluoromethylbenzyl-N-n-propylamine and 25.6 g (0.125 mol) of dicyclohexyl-carbodiimide (DCCI) and a further 250 ml of dimethylformamide (DMF) were added. The mixture was left to react for 24 hours. It was then cooled to 5° C. and filtered. 500 ml of water were added to the filtrate and it was extracted with ethyl acetate. The combined organic phases were washed with water and saturated sodium hydrogen carbonate solution, dried with magnesium sulphate and filtered over kieselguhr/char-coal. After working up in the usual way, 50 g of colourless crystals of the title compound are obtained by crystallisation from ethanol/diisopropylether (1:1). […] (The method used is described for example in European Patent Application 368 175).

SMILES | IC50 [1] [nM] | Ki [2] [nM]
Cc1nnc2n1-c1sc3c(c1C(c1ccccc1Cl)=NC2)C[C@H](C(=O)N(Cc1ccccc1)Cc1ccccc1)C3 [Example 10, S(--)-3-(Dibenzylaminocarbonyl)-5-(2-chlorophenyl)-10-methyl-7H-cyclopenta[4,5]thieno-[3,2-f][1,2,4]-triazolo-[4,3-a][1,4]diazepine] | 37 | 
CCN(Cc1ccccc1)C(=O)[C@@H]1Cc2sc3c(c2C1)C(c1ccccc1Cl)=NCc1nnc(C)n1-3 [Example 6, S(-)-3-(Benzylethylaminocarbonyl)-5-(2-chlorophenyl)-10-methyl-7H-cyclopenta[4,5]thieno[3,2-f][1,2,4]triazolo-[4,3-a][1,4]diazepine] | 23 | 
CCCN(Cc1ccc(C(F)(F)F)cc1)C(=O)[C@@H]1Cc2sc3c(c2C1)C(c1ccccc1Cl)=NCc1nnc(C)n1-3 [Example 18] |  | 1.8
CCCN(Cc1ccccc1)C(=O)[C@@H]1Cc2sc3c(c2C1)C(c1ccccc1Cl)=NCc1nnc(C)n1-3 [Example 2, S(-)-3-(Benzylpropylaminocarbonyl)-5-(2-chlorophenyl)-10-methyl-7H-cyclopenta[4,5]thieno[3,2-f][1,2,4]-triazolo-[4,3-a][1,4]diazepine] | 49 | 
CCCCN(Cc1ccccc1)C(=O)[C@@H]1Cc2sc3c(c2C1)C(c1ccccc1Cl)=NCc1nnc(C)n1-3 [Example 7, S(-)-3-(Benzylbutylaminocarbonyl)-5-(2-chlorophenyl)-10-methyl-7H-cyclopenta[4,5]thieno-[3,2-f][1,2,4]triazolo-[4,3-a][1,4]diazepine] | 84 | 
